Reference: patent US20090093010A1, “Method of Detecting Kidney Dysfunction” (University of Manitoba, priority 2004, published 2009)
“Also recorded” adds a separate entry of the source. Where a SMILES comes first, the peptide text is derived from it. [ ]: non-standard residue; d: D form. The star is where a group is joined. Sta = CC(C)C[C@H](N)[C@@H](O)CC(=O)O; Isovaleryl = CC(C)CC(=O)*

What was measured:
Assay type in all cases: biochemical, human
[1] = test system: aspartic proteinase(s) performing initial cleavage of intact urinary β2-microglobulin; assay: Inhibition of initial cleavage of intact urinary β2-microglobulin in patient urine at pH 4.5 (SELDI-TOF-MS); details: patient urine brought to pH 4.5
Procedure: Pepstatin is a well-established inhibitor of aspartic proteinases. […] Different proteinase-inhibitors were added (Pepstatin and Complete Mini EDTA-free, both from Roche, Switzerland).

[2] = test system: serine and/or cysteine proteinases cleaving Y63 and F62 of the β2-microglobulin long chain; assay: Inhibition of cleavage of Y63 and F62 on the long chain (I1-Y63) of cleaved β2-microglobulin; details: occurs even at pH 6; EDTA 20 mmol/L
Description: Further confirmed non-tryptic cleavage sites on the long chain occur at F62 and then at S61, resulting in three major forms of long chains with calculated molecular weights of 7358.19 Da (I1-Y63), 7195.01 Da (I1-F62) and 7047.83 Da (I1-S61) (see FIG. 25B). […] In addition, three cleavage sites on the long chain have been identified by μLC-MS/MS (F22, N24 and C25), however, the resulting fragments were not detectable by SELDI-TOF-MS.

[3] = test system: protease family responsible for β2-microglobulin cleavage in urine; assay: Determination of the protease family responsible for β2-microglobulin cleavage (urine spiked with intact β2-microglobulin and protease inhibitors, SELDI-TOF-MS); details: urine at pH 5, intact β2-microglobulin 10 mg/L, 37° C.; pepstatin 14.5 μM, Complete-Mini (EDTA-free) 0.2 tablets/mL, EDTA 20 mM
Procedure: These samples were then analysed by SELDI-TOF-MS immediately (column 1) and after 6 hours of incubation at 37° C. (column 2).
One mL of a urine sample from a healthy individual (total protein 110 mg/L, creatinine 18.9 mM, pH 5) and 1 mL of a urine sample from a patient with an acute clinical rejection episode showing the protein peak clusters (total protein 230 mg/L, creatinine 11.6 mM, pH 5) were incubated for 16 hours at 37° C. to degrade existing intact and cleaved β2-m. Four hundred μL of each sample were mixed with sodium acetate pH 5 (final concentration 166 mM) to ensure, stable pH and divided into four portions of 100 μL. Pepstatin (final concentration 14.5 μM), Complete-Mini (EDTA-free) (final concentration 0.2 tablets/mL), EDTA (final concentration 20 mM) or no protease inhibitors were added to each portion. Another 100 μL of each urine sample was brought to pH 6 by adding MES pH 6 (final concentration 166 mM). […] SELDI-TOF-MS analysis was performed immediately and after 1, 2, 4, 6 and 24 hours of incubation at 37° C.

| SMILES | Detectability of the intact form of β2-microglobulin after 6 to 24 hours in urine spiked with proteinase inhibitor [1] | Inhibition of the cleavage of the two amino acids Y63 and F62 on the long chain [2] | Inhibition of cleavage of intact β2-microglobulin [3] |
| --- | --- | --- | --- |
| CC(C)CC(=O)N[C@H](C(=O)N[C@H](C(=O)N[C@@H](CC(C)C)[C@@H](O)CC(=O)N[C@@H](C)C(=O)N[C@@H](CC(C)C)[C@@H](O)CC(=O)O)C(C)C)C(C)C [Pepstatin] (Isovaleryl-VV[Sta]A[Sta]-OH) | still detectable in unchanged intensity; also recorded: can be inhibited | not | could prevent β2-microglobulin cleavages; also recorded: could be inhibited; also recorded: could inhibit β2-microglobulin cleavage |
| O=C(O)CN(CCN(CC(=O)O)CC(=O)O)CC(=O)O [EDTA] |  | not | not |
